Experiments:
[1] = molecular target: T1, ST3Gal1 (Homo sapiens, UniProt Q11201); assay: Direct fluorescent glycan labeling (DFGL) with fluorophore-conjugated sialic acid by ST3Gal1; type: biochemical; set-up: key to Relative tolerance of the fluorophore by ST3Gal1: +++: indicated by + and − signs only; ++: indicated by + and − signs only; indicated by + and − signs only; indicated by + and − signs only; conditions: fluorophore-conjugated sialic acid donor; acceptor Gal of Core-1 O-glycan; fluorescence intensity of labeled fetuin or asialofetuin in FIG. 2
T1 construct: purchased R&D Systems (Bio-Techne, Minneapolis, MN)
T1 sequence (Q11201 1-340): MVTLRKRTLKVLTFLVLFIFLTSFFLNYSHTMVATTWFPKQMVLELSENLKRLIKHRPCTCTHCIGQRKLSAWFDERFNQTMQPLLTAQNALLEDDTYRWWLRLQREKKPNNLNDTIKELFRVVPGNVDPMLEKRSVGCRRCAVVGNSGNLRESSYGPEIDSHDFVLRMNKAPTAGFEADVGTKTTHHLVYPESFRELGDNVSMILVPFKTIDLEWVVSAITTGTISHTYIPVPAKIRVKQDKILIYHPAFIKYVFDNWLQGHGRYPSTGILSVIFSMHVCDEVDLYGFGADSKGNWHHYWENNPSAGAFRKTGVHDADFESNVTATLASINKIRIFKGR

[2] = molecular target: T2, ST3Gal2 (Homo sapiens, UniProt Q16842); assay: DFGL with fluorophore-conjugated sialic acid by ST3Gal2; type: biochemical; set-up: key: +++: indicated by + and − signs only; ++: indicated by + and − signs only; indicated by + and − signs only; indicated by + and − signs only; conditions: fluorophore-conjugated sialic acid donor; acceptor Gal of Core-1 O-glycan; fluorescence intensity of labeled fetuin or asialofetuin in FIG. 2
T2 construct: purchased R&D Systems (Bio-Techne, Minneapolis, MN)
T2 sequence (Q16842 1-350): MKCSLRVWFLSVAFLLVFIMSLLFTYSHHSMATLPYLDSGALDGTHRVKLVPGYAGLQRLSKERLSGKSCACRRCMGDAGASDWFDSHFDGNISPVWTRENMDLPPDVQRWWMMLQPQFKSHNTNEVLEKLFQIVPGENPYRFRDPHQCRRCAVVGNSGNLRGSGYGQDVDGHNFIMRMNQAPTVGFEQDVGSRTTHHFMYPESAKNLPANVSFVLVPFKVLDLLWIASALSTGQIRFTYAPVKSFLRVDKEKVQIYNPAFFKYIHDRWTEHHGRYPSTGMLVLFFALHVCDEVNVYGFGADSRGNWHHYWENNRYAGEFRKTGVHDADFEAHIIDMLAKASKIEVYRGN

[3] = molecular target: T3, ST3Gal4 (Homo sapiens, UniProt Q11206); assay: DFGL with fluorophore-conjugated sialic acid by ST3Gal4; type: biochemical; set-up: key: +++: indicated by + and − signs only; ++: indicated by + and − signs only; indicated by + and − signs only; indicated by + and − signs only; conditions: fluorophore-conjugated sialic acid donor; acceptor Gal of N-glycan; fluorescence intensity of labeled fetuin or asialofetuin in FIG. 2
T3 construct: purchased R&D Systems (Bio-Techne, Minneapolis, MN)
T3 sequence (Q11206 1-333): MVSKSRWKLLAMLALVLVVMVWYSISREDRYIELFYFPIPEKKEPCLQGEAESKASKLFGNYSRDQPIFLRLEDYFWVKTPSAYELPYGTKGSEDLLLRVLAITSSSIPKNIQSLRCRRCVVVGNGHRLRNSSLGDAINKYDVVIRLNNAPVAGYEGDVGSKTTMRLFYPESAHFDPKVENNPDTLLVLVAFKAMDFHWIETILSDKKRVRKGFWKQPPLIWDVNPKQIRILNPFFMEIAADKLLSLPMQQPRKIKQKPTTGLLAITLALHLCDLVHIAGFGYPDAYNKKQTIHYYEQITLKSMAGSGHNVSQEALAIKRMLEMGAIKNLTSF

[4] = molecular target: T4, ST6Gal1 (Homo sapiens, UniProt P15907); assay: DFGL with fluorophore-conjugated sialic acid by ST6Gal1; type: biochemical; set-up: key to Relative tolerance of the fluorophore by ST6Gal1: +++: indicated by + and − signs only; ++: indicated by + and − signs only; indicated by + and − signs only; indicated by + and − signs only; conditions: fluorophore-conjugated sialic acid donor; acceptor Gal of N-glycan; fluorescence intensity of labeled fetuin or asialofetuin in FIG. 2
T4 construct: purchased R&D Systems (Bio-Techne, Minneapolis, MN)
T4 sequence (P15907 1-406): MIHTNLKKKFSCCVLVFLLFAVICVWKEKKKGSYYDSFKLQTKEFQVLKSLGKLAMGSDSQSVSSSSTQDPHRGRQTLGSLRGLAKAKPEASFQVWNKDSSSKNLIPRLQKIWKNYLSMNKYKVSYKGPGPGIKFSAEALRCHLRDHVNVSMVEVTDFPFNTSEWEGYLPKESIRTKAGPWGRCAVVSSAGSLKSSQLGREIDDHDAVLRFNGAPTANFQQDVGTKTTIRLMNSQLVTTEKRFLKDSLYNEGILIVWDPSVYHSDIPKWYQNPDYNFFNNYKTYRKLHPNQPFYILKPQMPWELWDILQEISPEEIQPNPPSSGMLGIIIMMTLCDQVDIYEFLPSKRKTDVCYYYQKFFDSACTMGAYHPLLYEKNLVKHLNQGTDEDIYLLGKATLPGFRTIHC

[5] = molecular target: T5, ST6GalNAc1 (Homo sapiens, UniProt Q9NSC7); assay: DFGL with fluorophore-conjugated sialic acid by ST6GalNAc1; type: biochemical; set-up: key: +++: indicated by + and − signs only; ++: indicated by + and − signs only; indicated by + and − signs only; indicated by + and − signs only; conditions: fluorophore-conjugated sialic acid donor; acceptor O-GalNAc, sialylation on terminal Gal is flexible; FIG. 2
T5 construct: purchased R&D Systems (Bio-Techne, Minneapolis, MN)
T5 sequence (Q9NSC7 1-600): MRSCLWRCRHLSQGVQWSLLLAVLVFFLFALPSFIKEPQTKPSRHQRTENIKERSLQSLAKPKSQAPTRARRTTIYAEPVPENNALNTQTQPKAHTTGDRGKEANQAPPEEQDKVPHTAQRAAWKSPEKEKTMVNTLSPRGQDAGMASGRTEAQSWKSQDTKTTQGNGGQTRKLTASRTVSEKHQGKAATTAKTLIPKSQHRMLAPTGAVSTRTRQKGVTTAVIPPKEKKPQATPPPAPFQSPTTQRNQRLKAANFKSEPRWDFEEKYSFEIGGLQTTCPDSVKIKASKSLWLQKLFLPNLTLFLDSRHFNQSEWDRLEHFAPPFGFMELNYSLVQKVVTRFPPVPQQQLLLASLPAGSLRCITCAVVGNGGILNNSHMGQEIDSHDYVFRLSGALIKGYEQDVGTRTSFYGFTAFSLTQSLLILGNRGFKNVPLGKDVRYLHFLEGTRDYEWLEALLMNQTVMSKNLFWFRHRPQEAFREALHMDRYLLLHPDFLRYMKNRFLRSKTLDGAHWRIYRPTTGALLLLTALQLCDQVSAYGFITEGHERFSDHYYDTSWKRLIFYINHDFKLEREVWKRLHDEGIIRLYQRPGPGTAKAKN

[6] = molecular target: T6, ST6GalNAc2 (Homo sapiens, UniProt Q9UJ37); assay: DFGL with fluorophore-conjugated sialic acid by ST6GalNAc2; type: biochemical; set-up: key: +++: indicated by + and − signs only; ++: indicated by + and − signs only; indicated by + and − signs only; indicated by + and − signs only; conditions: fluorophore-conjugated sialic acid donor; acceptor O-GalNAc, sialylation on terminal Gal is flexible; FIG. 2
T6 sequence (Q9UJ37 1-374): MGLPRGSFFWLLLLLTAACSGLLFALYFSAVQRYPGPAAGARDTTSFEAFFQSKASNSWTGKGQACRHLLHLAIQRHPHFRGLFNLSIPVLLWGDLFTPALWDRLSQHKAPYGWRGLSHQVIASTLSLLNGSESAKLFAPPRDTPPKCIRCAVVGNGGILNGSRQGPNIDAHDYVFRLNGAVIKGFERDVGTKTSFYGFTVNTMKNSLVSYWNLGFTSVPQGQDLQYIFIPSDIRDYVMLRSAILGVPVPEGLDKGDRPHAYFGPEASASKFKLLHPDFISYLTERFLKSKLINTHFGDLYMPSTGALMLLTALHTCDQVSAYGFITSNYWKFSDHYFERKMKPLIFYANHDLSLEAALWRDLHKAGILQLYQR

[7] = molecular target: T7, ST6GalNAc4 (Homo sapiens, UniProt Q9H4F1); assay: DFGL with fluorophore-conjugated sialic acid by ST6GalNAc4; type: biochemical; set-up: key to Relative tolerance of the fluorophore by ST6GalNAc4: +++: indicated by + and − signs only; ++: indicated by + and − signs only; indicated by + and − signs only; indicated by + and − signs only; conditions: for Relative tolerance of the fluorophore by ST6GalNAc4: fluorophore-conjugated sialic acid donor, acceptor O-GalNAc, with sialylated terminal Gal, FIG. 2
T7 construct: purchased R&D Systems (Bio-Techne, Minneapolis, MN)
T7 sequence (Q9H4F1 1-302): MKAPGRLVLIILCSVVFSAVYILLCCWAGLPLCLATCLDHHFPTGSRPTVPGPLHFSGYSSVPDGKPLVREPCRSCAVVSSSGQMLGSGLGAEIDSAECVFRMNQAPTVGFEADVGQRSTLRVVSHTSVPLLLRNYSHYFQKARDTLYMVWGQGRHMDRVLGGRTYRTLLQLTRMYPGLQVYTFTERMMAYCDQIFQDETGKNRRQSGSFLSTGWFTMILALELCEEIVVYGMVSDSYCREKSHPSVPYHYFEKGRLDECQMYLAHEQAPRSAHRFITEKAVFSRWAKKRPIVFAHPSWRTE

[8] = test system: fetuin and asialofetuin; assay: PNGase F and FUCA1 treatment of labeled fetuin and asialofetuin; type: biochemical, bovine; conditions: Cy5, FIG. 18B
Method: FIG. 18A-FIG. 18B show characterization of the labeled glycans on fetuin (Fet) and asialofetuin (AF) with PNGase F and FUCA1. FIG. 18A. PNGase F treatment of the labeled samples. […] Fet was labeled by FUT7 (F7) with Alexa Fluor® 488 (blue). Labeled samples were then treated with PNGase F to release the glycans. FIG. 18B. Effect of FUCA1 on the labeling. Samples without or with FUCA1 treatment were labeled by the indicated enzymes with Cy5. All samples were separated on 15% SDS-PAGE and imaged by silver staining, TCE staining and fluorescent imaging as indicated. M, Western blot molecular marker.
For a typical labeling reaction, 1 μg to 5 μg target protein was mixed with 0.2 nmol fluorophore-conjugated GDP-fucose and 0.2 μg of a fucosyltransferase in 30μL 25 mM Tris pH 7.5, 10 mM MnCl2. The mixture was incubated at 37° C. for 30 minutes. […] To release labeled glycans from a glycoprotein, the sample was first denatured by heating at 95° C. for two minutes in the presence of 0.5% SDS and 80 mM β-mercaptoethanol and then renatured with 1% Triton X-100, and finally treated with PNGase F at 10:1 mass ratio at 37° C. for 20 minutes. To release glycans from antibody, a sample was directly treated with Endo S at 10:1 mass ratio at 37° C. for 20 minutes. All samples were separated by sodium dodecyl sulfate—polyacrylamide gel electrophoresis (SDS-PAGE) at volts/cm. […]

Molecule	Relative tolerance of the fluorophore by ST3Gal1 [1]	Relative tolerance of the fluorophore by ST3Gal2 [2]	Relative tolerance of the fluorophore by ST3Gal4 [3]	Relative tolerance of the fluorophore by ST6Gal1 [4]	Relative tolerance of the fluorophore by ST6GalNAc1 [5]	Relative tolerance of the fluorophore by ST6GalNAc2 [6]	Fluorophore preference of ST6GalNAc4 ([7]; Alexa Fluor® 555 over Cy5, FIG. 2)	Relative tolerance of the fluorophore by ST6GalNAc4 [7]	Change of labeling on FUT7 labeled fetuin after the treatment [8]
cytidine monophosphate activated Alexa-Fluor® 555-conjugated sialic acid [CMP-AF555-SA]	++	+++	++	++	++	+	strong preference	+++	
cytidine monophosphate activated Alexa-Fluor®488-conjugated sialic acid [CMP-AF488-SA]	+	+++	+	+++	++	−		+	
FUCA1: a lysosomal enzyme that hydrolyze α-fucose residues from glycans (protein, UniProt P04066 32-466, looked up) Tissue alpha-L-fucosidase: QPPRRYTPDWPSLDSRPLPAWFDEAKFGVFIHWGVFSVPAWGSEWFWWHWQGEGRPQYQRFMRDNYPPGFSYADFGPQFTARFFHPEEWADLFQAAGAKYVVLTTKHHEGFTNWPSPVSWNWNSKDVGPHRDLVGELGTALRKRNIRYGLYHSLLEWFHPLYLLDKKNGFKTQHFVSAKTMPELYDLVNSYKPDLIWSDGEWECPDTYWNSTNFLSWLYNDSPVKDEVVVNDRWGQNCSCHHGGYYNCEDKFKPQSLPDHKWEMCTSIDKFSWGYRRDMALSDVTEESEIISELVQTVSLGGNYLLNIGPTKDGLIVPIFQERLLAVGKWLSINGEAIYASKPWRVQWEKNTTSVWYTSKGSAVYAIFLHWPENGVLNLESPITTSTTKITMLGIQGDLKWSTDPDKGLFISLPQLPPSAVPAEFAWTIKLTGVK									two-fold increase
